Among the data in US4383113A, “Agricultural sulfonamides” (E. I. Du Pont de Nemours and Company, priority 1981, dated 1983) are response rating values, retold here.

Common to all, as to set-up: key: 0 = no effect, 10 = maximum effect; letter = response symbol
For assay [1], the system named is sorghum. The assay is described as follows: Test A post-emergence. It counts as in vivo. An outline of the steps:
(§1)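 Seeds and tubers were treated preemergence in a growth medium with compound in a nonphytotoxic solvent, against untreated controls; emerged plants such as two-leaf barnyardgrass and five-leaf cotton were sprayed postemergence, against solvent-sprayed controls. After sixteen days in a greenhouse, response was rated visually from 0 to 10.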

In assay [2] the test system is rice. As to the kind of experiment: Test A post-emergence. It counts as in vivo. An outline of the steps:
as §1

For assay [3], the system named is cotton. The assay is described as follows: Test A post-emergence. It counts as in vivo. An outline of the steps:
as §1

Assay [4] concerns corn. As to the kind of experiment: Test A post-emergence. Type of assay: in vivo. An outline of the steps: as §1
Assay [5] relates to barnyardgrass. As to the kind of experiment: Test A post-emergence. Type of assay: in vivo, Echinochloa crusgalli. An outline of the steps:
as §1

The subject of assay [6] is nutsedge. The assay is described as follows: Test A post-emergence. It counts as in vivo, Cyperus rotundus. The procedure, abridged:
as §1

Assay [7] relates to cassia. As to the kind of experiment: Test A post-emergence. Type of assay: in vivo, Cassia tora. The procedure, abridged: as §1
Assay [8] concerns cocklebur. The assay is described as follows: Test A post-emergence. Type of assay: in vivo, Xanthium spp. The procedure, abridged:
as §1

The subject of assay [9] is morningglory. The assay is described as follows: Test A post-emergence. Type of assay: in vivo, Ipomoea spp. The procedure, abridged:
as §1

Assay [10] has as its system wheat. The assay is described as follows: Test A post-emergence. Type of assay: in vivo. The procedure, abridged: as §1
Assay [11] relates to crabgrass. As to the kind of experiment: Test A post-emergence. It counts as in vivo, Digitaria spp. An outline of the steps: as §1
Assay [12] relates to wild oats. As to the kind of experiment: Test A post-emergence. It counts as in vivo, Avena fatua. An outline of the steps: as §1
The test system of assay [13] is soybean. The assay is described as follows: Test A post-emergence. It counts as in vivo. The procedure, abridged:
as §1

Assay [14] relates to bush bean. The assay is described as follows: Test A post-emergence. Type of assay: in vivo, bush beans.
Assay [15] relates to soybean. The assay is described as follows: Test A pre-emergence. Type of assay: in vivo. The note with it: 0.4 kg/ha. The procedure, abridged:
as §1

Assay [16] deals with rice. As to the kind of experiment: Test A pre-emergence. It counts as in vivo. The conditions noted are these: 0.4 kg/ha. An outline of the steps:
as §1

The subject of assay [17] is wheat. As to the kind of experiment: Test A pre-emergence. The note with it: 0.4 kg/ha. Type of assay: in vivo. An outline of the steps:
as §1

Assay [18] has as its system morningglory. As to the kind of experiment: Test A pre-emergence. Type of assay: in vivo, Ipomoea spp. The conditions noted are these: 0.4 kg/ha. The procedure, abridged:
as §1

The subject of assay [19] is cocklebur. As to the kind of experiment: Test A pre-emergence. It counts as in vivo, Xanthium spp. The conditions noted are these: 0.4 kg/ha. An outline of the steps:
as §1

Assay [20] concerns cassia. The assay is described as follows: Test A pre-emergence. It counts as in vivo, Cassia tora. The conditions noted are these: 0.4 kg/ha. The procedure, abridged: as §1

Take `COc1cc(C)nc(NC(=O)NS(=O)(=O)c2ccccc2C(=O)OC(C)C)n1` [drawing 437]: the response rating was 10C in assay [1] (0.4 kg/ha); 8C in [2] (0.4 kg/ha); 10C in assay [3] (0.4 kg/ha); 9C in [4] (0.4 kg/ha); 10C in [5] (0.4 kg/ha); 9C in [6] (0.4 kg/ha). For the same compound, the response rating in [7] (0.4 kg/ha) is given as 9C; in assay [8] (0.4 kg/ha), 10C; in assay [9] (0.4 kg/ha), 9C.
Take `CCOC(=O)c1ccccc1S(=O)(=O)NC(=O)Nc1nc(OC)cc(OC)n1` [drawing 441]: the response rating in [1] (2 kg/ha) turned out to be 10C; in assay [2] (2 kg/ha) it was 9C; in [3] (2 kg/ha), 9C; in assay [10] (2 kg/ha) it was 9C; in assay [4] (2 kg/ha), 9C; in assay [5] (2 kg/ha), 10C. In addition, the response rating in [11] (2 kg/ha) was 9C; in assay [6] (2 kg/ha), 9C; in [7] (2 kg/ha), 9C; in [8] (2 kg/ha), 9C; in [9] (2 kg/ha), 10C; in assay [12] (2 kg/ha), 9C.
With `CCCCOC(=O)c1ccccc1S(=O)(=O)NC(=O)Nc1nc(OC)cc(OC)n1` [drawing 439], the response rating in assay [1] (2 kg/ha), in [2] (2 kg/ha), in assay [3] (2 kg/ha), in assay [10] (2 kg/ha), in [4] (2 kg/ha) and in [5] (0.4 kg/ha) was 9C each time. The response rating in assay [5] (2 kg/ha) came out at 10C; in assay [6] (2 kg/ha), 9C; in [7] (2 kg/ha) it was 9C; in assay [8] (0.4 kg/ha), 9C; in assay [8] (2 kg/ha), 9C; in assay [9] (0.4 kg/ha), 9C. Moreover, the response rating in assay [9] (2 kg/ha) is on record as 10C; in assay [12] (2 kg/ha), 9C.
Consider `COC(=O)c1ccccc1S(=O)(=O)NC(=O)Nc1nc(C)nc(OC)n1` [drawing 415], for which the response rating is on record as 9C in assay [13] (0.4 kg/ha); 10C in assay [1] (0.4 kg/ha); 10C in assay [2] (0.4 kg/ha); 9C in assay [3] (0.4 kg/ha); 10C in assay [10] (0.4 kg/ha); 10C in assay [4] (0.4 kg/ha). In addition, the response rating in [5] (0.4 kg/ha) stood at 10C; in assay [11] (0.4 kg/ha), 10C; in assay [6] (0.4 kg/ha) it was 9C; in assay [8] (0.4 kg/ha), 9C; in assay [9] (0.4 kg/ha) it was 10C; in assay [14] (0.4 kg/ha), 9C. In addition, the response rating in [12] (0.4 kg/ha) was 10C.
Regarding `COC(=O)c1ccccc1S(=O)(=O)NC(=O)Nc1nc(C)cc(C)n1` [drawing 412], the response rating in assay [13] (0.4 kg/ha) is listed as 9C; in [13] (2 kg/ha), 6C; in [1] (0.4 kg/ha), 9C; in assay [1] (2 kg/ha), 10C; in assay [2] (0.4 kg/ha) it was 10C; in assay [2] (2 kg/ha), 10C. Further, the response rating in assay [3] (0.4 kg/ha), in assay [3] (2 kg/ha), in assay [10] (0.4 kg/ha), in assay [10] (2 kg/ha), in [4] (0.4 kg/ha) and in [4] (2 kg/ha) was 9C in each case. The response rating came to 10C in [5] (0.4 kg/ha); 10C in assay [5] (2 kg/ha); 9C in assay [11] (0.4 kg/ha); 9C in assay [11] (2 kg/ha); 9C in assay [6] (0.4 kg/ha); 9C in assay [6] (2 kg/ha). In addition, the response rating in [7] (0.4 kg/ha) is given as 9C; in assay [7] (2 kg/ha), 9C; in [8] (0.4 kg/ha) it was 10C; in assay [8] (2 kg/ha) it was 9C; in assay [9] (0.4 kg/ha), 10C; in [9] (2 kg/ha) it was 10C. Moreover, the response rating in assay [14] (0.4 kg/ha), in assay [14] (2 kg/ha), in assay [12] (0.4 kg/ha) and in assay [12] (2 kg/ha) was 9C in each case.
Consider `COc1cc(C)nc(NC(=O)NS(=O)(=O)c2ccccc2C(=O)SC2CCCCC2)n1` [drawing 476], for which the response rating in [1] (0.4 kg/ha) came to 9C; in assay [2] (0.4 kg/ha), 9C; in assay [3] (0.4 kg/ha), 9C; in [5] (0.4 kg/ha), 9C; in assay [6] (0.4 kg/ha) it was 10C; in [7] (0.4 kg/ha) it was 9C. Moreover, the response rating in assay [8] (0.4 kg/ha) amounted to 9C; in assay [9] (0.4 kg/ha) it was 10C; in assay [14] (0.4 kg/ha) it was 9C; in assay [12] (0.4 kg/ha) it was 9C.
Turning to `COC(=O)c1ccccc1S(=O)(=O)NC(=O)Nc1nc(OC)cc(OC)n1` [drawing 414], the response rating in assay [13] (0.4 kg/ha) is listed as 9C; in assay [1] (0.4 kg/ha), 9C; in assay [2] (0.4 kg/ha) it was 8C; in assay [3] (0.4 kg/ha), 9C; in [10] (0.4 kg/ha), 9C; in assay [4] (0.4 kg/ha) it was 9C. The response rating was determined as 9C in assay [5] (0.4 kg/ha); 10C in assay [6] (0.4 kg/ha); 9C in assay [7] (0.4 kg/ha); 9C in [8] (0.4 kg/ha); 10C in assay [9] (0.4 kg/ha); 9C in [14] (0.4 kg/ha). Moreover, in assay [12] (0.4 kg/ha), the response rating is 9C.
On to `COc1cc(OC)nc(NC(=O)NS(=O)(=O)c2ccccc2C(=O)OC(C)C)n1` [drawing 436], for which the response rating in assay [1] (0.4 kg/ha) came out at 9C; in assay [2] (0.4 kg/ha) it was 7C; in assay [3] (0.4 kg/ha), 9C; in assay [5] (0.4 kg/ha), 9C; in assay [11] (0.4 kg/ha), 6C; in [6] (0.4 kg/ha) it was 9C. In addition, the response rating in assay [7] (0.4 kg/ha) was 9C; in assay [8] (0.4 kg/ha), 10C; in assay [9] (0.4 kg/ha), 10C; in assay [12] (0.4 kg/ha) it was 6C.
For the compound `COc1cc(C)nc(NC(=O)NS(=O)(=O)c2ccccc2C(=O)OCCOCCOCCCl)n1` [drawing 448], the response rating in assay [13] (0.4 kg/ha) was found to be 8C; in assay [2] (0.4 kg/ha), 8C; in [3] (0.4 kg/ha) it was 9C; in assay [10] (0.4 kg/ha) it was 9C; in assay [5] (0.4 kg/ha), 10C; in [7] (0.4 kg/ha), 9C. Moreover, the response rating is on record as 9C in assay [8] (0.4 kg/ha), 10C in [9] (0.4 kg/ha), 9C in [14] (0.4 kg/ha) and 9C in [12] (0.4 kg/ha).
As for `COC(=O)c1cc([N+](=O)[O-])ccc1S(=O)(=O)NC(=O)Nc1nc(C)cc(OC)n1` [drawing 529], the response rating worked out at 9H in assay [15]; 9H in [16]; 9G in [17]; 9G in [18]; 9G in assay [19]; 9G in assay [20].
As to `COC(=O)c1ccccc1S(=O)(=O)NC(=O)Nc1nc(C)nc(N(C)C)n1` [drawing 472], the response rating worked out at 9C in assay [13] (0.4 kg/ha); 10C in assay [1] (0.4 kg/ha); 10C in [2] (0.4 kg/ha); 9C in assay [3] (0.4 kg/ha); 9C in [10] (0.4 kg/ha); 9C in assay [4] (0.4 kg/ha). Also, the response rating in assay [5] (0.4 kg/ha) was 10C; in assay [6] (0.4 kg/ha), 8G; in assay [7] (0.4 kg/ha), 9C; in [8] (0.4 kg/ha), 9C; in assay [9] (0.4 kg/ha), 10C; in assay [14] (0.4 kg/ha), 9C. The response rating in assay [12] (0.4 kg/ha) turned out to be 9C.
As to `CCOC(=O)c1ccccc1S(=O)(=O)NC(=O)Nc1nc(OC)cc(OC)n1` [drawing 442], the response rating in assay [1] (0.4 kg/ha) came out at 9C; in [2] (0.4 kg/ha), 9C; in assay [3] (0.4 kg/ha), 9C; in assay [10] (0.4 kg/ha), 9C; in assay [4] (0.4 kg/ha), 9C; in assay [5] (0.4 kg/ha) it was 10C. The response rating was found to be 9C in assay [6] (0.4 kg/ha); 9C in assay [7] (0.4 kg/ha); 9C in assay [8] (0.4 kg/ha); 10C in assay [9] (0.4 kg/ha); 9C in assay [12] (0.4 kg/ha).
